Values after ≈ are worked out from the molar mass of the structure shown. Marks after values point to notes of the source that are not given here.
Assays:
[1] = tested on: 1F7-McAb; assay: heterologous ic-ELISA with 1F7-McAb; settings: for cross-reactivity rate: IC50 of clothianidin / IC50 of analogue × 100%
[2] = tested on: McAb [35] (anti-clothianidin antibody); parameters: method as in PMID 25173856; settings: ic-ELISA, cited from earlier work; for cross-reactivity rate: IC50 of clothianidin / IC50 of analogue × 100%
[3] = tested on: PcAb [22] (anti-clothianidin antibody); parameters: method as in PMID 23527939; settings: ic-ELISA, cited from earlier work; for cross-reactivity rate: IC50 of clothianidin / IC50 of analogue × 100%
[4] = tested on: 5C3-McAb; assay: heterologous ic-ELISA with 5C3-McAb; settings: for cross-reactivity rate: IC50 of clothianidin / IC50 of analogue × 100%
[5] = tested on: 1F7-RAb; assay: IMI-H-OVA-based heterologous ic-ELISA with 1F7-RAb; format: binding, mouse; settings: for cross-reactivity rate: ic-ELISA, IC50 of clothianidin / IC50 of analogue × 100%
[6] = tested on: 5C3-RAb; assay: THC-H-OVA-based heterologous ic-ELISA with 5C3-RAb; format: binding, mouse; settings: for cross-reactivity rate: ic-ELISA, IC50 of clothianidin / IC50 of analogue × 100%
[7] = tested on: McAb [23] (anti-clothianidin antibody); parameters: method as in PMID 23202236; settings: ic-ELISA, cited from earlier work; for cross-reactivity rate: IC50 of clothianidin / IC50 of analogue × 100%
[8] = tested on: 1F7-RAb; assay: 1F7-RAb-based GICA, selectivity and sensitivity in standard solution; format: binding, mouse; settings: analyte at 1000 μg/L, judged with the naked eye
[9] = tested on: 5C3-RAb; assay: non-competitive SPR with immobilized 5C3-RAb; format: binding, mouse
[10] = tested on: six potential antibodies from hybridoma culture supernatants; assay: homologous ic-ELISA hybridoma screening (CLO-H-OVA); settings: free clothianidin 50 μg/L; CLO-H-OVA 5 μg/mL
[11] = tested on: 1F7-RAb; assay: non-competitive SPR with immobilized 1F7-RAb; format: binding, mouse
[12] = 8 neonicotinoids at the same concentration of 50 nM
[13] = SPR, 1:1 binding kinetic model, read-out: KD (dissociation equilibrium constant)

Row | Compound | cross-reactivity rate [1] [%] | cross-reactivity rate [2] [%] | cross-reactivity rate [3] | cross-reactivity rate [4] [%] | cross-reactivity rate [5] | cross-reactivity rate [6] [%] | cross-reactivity rate [7] [%] | further results
1 | O=[N+]([O-])/N=C1\NCCN1Cc1ccc(Cl)nc1 [C00003] | <0.1 | <0.03 | 0.8% | <0.1 | <0.1% | <0.1 | <0.1 | –
2 | C/C(=N\C#N)N(C)Cc1ccc(Cl)nc1 [C00004] | <0.1 | <0.03 | <0.05% | <0.1 | <0.1% | <0.1 | <0.1 | –
3 | N#C/N=C1\SCCN1Cc1ccc(Cl)nc1 [C00005] | <0.1 | <0.03 | <0.05% | <0.1 | <0.1% | <0.1 | <0.1 | –
4 | CN1COCN(Cc2cnc(Cl)s2)/C1=N/[N+](=O)[O-] [C00006] | <0.1 | <0.03 | <0.05% | <0.1 | <0.1% | <0.1 | <0.1 | –
5 | CCN(Cc1ccc(Cl)nc1)/C(=C\[N+](=O)[O-])NC [C00007] | <0.1 | <0.03 | <0.05% | <0.1 | <0.1% | <0.1 | <0.1 | –
6 | O=[N+]([O-])/N=C1/NCCN1Cc1cnc(Cl)s1 [C00008] | <0.1 | <0.03 | <0.05% | <0.1 | <0.1% | <0.1 | <0.1 | –
7 | CN/C(=N\[N+](=O)[O-])NCc1cnc(Cl)s1 [clothianidin] | 100 | 100 | 100% | 100 | 100% | 100 | 100 | IC50 value [1]: 5.38 µg/L (≈ 0.0215 µM); IC50 value [2]: 25.6 µg/L (≈ 0.103 µM); IC50 value [3]: 46 µg/L (≈ 0.184 µM); GICA cross-reaction test, effect on T line [8]: complete disappearance of the T line; IC50 value [4]: 13.16 µg/L (≈ 0.0527 µM); SPR binding selectivity signal [9, 12]: high signal; Kd [9, 13]: 7.96 nM; IC50 value ([5]; heterologous ic-ELISA, 1.25 μg/mL of IMI-H-OVA): 4.62 µg/L (≈ 0.0185 µM); inhibition of binding of CLO-H-OVA to antibodies [10]: less than 11%; IC50 value ([6]; heterologous ic-ELISA, 5 μg/mL of THC-H-OVA, listed as C00001): 5.22 µg/L (≈ 0.0209 µM); SPR binding selectivity signal [11, 12]: high signal; Kd [11, 13]: 3.24 nM; IC50 value [7]: 4.4 µg/L (≈ 0.0176 µM)
8 | CN/C(=N/CC1CCOC1)N[N+](=O)[O-] (stereo not shown) [dinotefuran] | <0.1 | 47.8 | 11.8 ^c % | 42.4 | no obvious cross-reaction | 56 | 64 | cross-reactivity rate ([5]; listed as C00002): <0.1%
